Experimental findings from PMC12914920, “Novel glycine amides, semicarbazides and fluoroallylamines as inhibitors of the amine oxidase vascular adhesion protein-1 (VAP-1)” (RSC Medicinal Chemistry, 2026) are described below.

SMILES strings stand for the structures. pIC50: −log10 of the molar value.

In the assay the target is T1, VAP-1 in human plasma (Homo sapiens, UniProt Q16853).
T1 construct: from tissue; host or cells: human whole plasma from donated blood (Münster University Hospital)
T1 sequence (Q16853 27-763 limits assumed): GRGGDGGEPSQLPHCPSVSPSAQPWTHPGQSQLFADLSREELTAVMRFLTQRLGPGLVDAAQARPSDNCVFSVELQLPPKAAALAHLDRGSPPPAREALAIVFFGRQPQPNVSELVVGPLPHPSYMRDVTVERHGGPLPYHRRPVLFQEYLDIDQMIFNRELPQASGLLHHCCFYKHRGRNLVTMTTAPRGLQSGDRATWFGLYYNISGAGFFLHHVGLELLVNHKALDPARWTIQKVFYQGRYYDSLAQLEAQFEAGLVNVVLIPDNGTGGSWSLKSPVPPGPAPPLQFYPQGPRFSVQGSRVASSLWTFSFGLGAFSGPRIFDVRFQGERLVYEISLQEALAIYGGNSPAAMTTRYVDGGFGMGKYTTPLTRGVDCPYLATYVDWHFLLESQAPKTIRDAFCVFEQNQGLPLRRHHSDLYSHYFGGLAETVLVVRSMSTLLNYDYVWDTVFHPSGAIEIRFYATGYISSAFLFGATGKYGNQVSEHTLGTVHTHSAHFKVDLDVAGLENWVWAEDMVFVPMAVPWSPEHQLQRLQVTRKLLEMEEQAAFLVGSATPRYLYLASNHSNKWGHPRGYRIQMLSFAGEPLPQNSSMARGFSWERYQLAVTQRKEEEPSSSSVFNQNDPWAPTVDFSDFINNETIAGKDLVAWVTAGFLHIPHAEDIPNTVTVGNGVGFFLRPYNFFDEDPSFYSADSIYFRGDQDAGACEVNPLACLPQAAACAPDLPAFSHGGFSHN
The experiment in a line: Inhibition of VAP-1 activity in human whole plasma. In kind it is biochemical. The note with it: 15 min pre-incubation of enzyme and inhibitor.

Protocol: Preparation of human plasma: Human blood was collected in S-Monovette® Lithium-Heparin LH/7.5 mL (Sarstedt, Nümbrecht, Germany) during a blood donation at Münster University Hospital. Each about 5 mL of blood were pipetted into 10 mL Falcon Tubes and subsequently centrifuged at 1500 × g at 20 °C for 15 min. Aliquots of 800 μL plasma were transferred into 2 mL Eppendorf tubes and stored at −80 °C until further use.
Incubation procedure: A solution of the appropriate inhibitor in DMSO (concentration variable) (1.25 μL) was treated with human whole plasma (47.5 μL) and pre-incubated at 37 °C for 15 min. Subsequently, the enzyme reaction was started by the addition of a solution of the substrate 6-(5-phenyl-2H-tetrazol-2-yl)hexan-1-amine[47] (10 mM) in DMSO (1.25 μL). After 2 h of incubation, acetonitrile (50 μL) was added. The samples were cooled in an ice bath for 10 min and centrifuged at 12 000 × g and 10 °C for 10 min. […] Controls with DMSO (1.25 μL) instead of a DMSO solution of the inhibitor (1.25 μL) were prepared in the same manner in parallel (n = 3). Blanks were run by incubating a mixture of the substrate solution in DMSO and DMSO (1.25 μL each) and 47.5 μL of PBS in the same way. […] The peak ratios of enzyme product and internal standard obtained in the absence and presence of a test compound were compared, corrected for the blank value.

`N#Cc1ccc(-c2nnn(Cc3cccc(CNC(=O)CN)c3)n2)cc1` [Compound 63] showed a pIC50 of 6.49.
